Experimental data as given in EP0359821A1, “METHOD OF STERILIZING PLANT ANTHERS” (priority 1988, dated 1989).
Read-outs that look alike come from different tables or passages of the source.

Legend:
[1] = in vivo; conditions: mouse
[2] = test system: Diploider Roggen Sorte Gibrid 340/65; assay: Field trial of gametocidal activity, diploid rye Gibrid 340/65; conditions: Gibrid 340/65 (text: 312/65), 1% aqueous emulsion, 10 kg/ha; for Anzahl von Körnern der Ähre bei freier Bestäubung / Anzahl von Körnern der Ähre im Isolator / Prozentsatz der Sterilität: V. and VI. periods; for Prozentsatz des Ansetzens bei freier Bestäubung: control = 100
[3] = test system: Diploider Roggen Sorte Chulpan; assay: Field trial of gametocidal activity, diploid rye Chulpan; format: in vivo; conditions: single compounds, 1% aqueous emulsion, 10 kg/ha; for percent sterility at 10000 g/ha: read-out: Prozentsatz der Sterilität; for response vs control in vivo at 10000 g/ha: control = 100
Source text: Bei Weizen und Tritikale werden Einzelisolatoren verwendet.
Pflanzen von diploidem Roggen Sorte Chulpan werden in der V. oder VI.
Der Verbrauch an Sterilisationsmitteln beträgt 10 kg/ha.

[4] = test system: Winterweizens Sorte Mironovskaya 808; assay: Field trial of gametocidal activity (anther sterilisation), winter wheat; format: in vivo, Weizen; conditions: 2% aqueous emulsion, 20 kg/ha; for response vs control in vivo at 20000 g/ha: control = 100, read-out: Prozentsatz des Ansetzens bei freier Bestäubung
[5] = test system: Sommerweizen Sorte Moskovskaya 35; assay: Field trial of gametocidal activity, spring wheat; format: in vivo, Weizen; conditions: 1% aqueous emulsion; for Anzahl von Körnern der Ähre bei freier Bestäubung / Anzahl von Körnern der Ähre im Isolator / percent sterility at 10000 g/ha: 10 kg/ha, V. period; for percent sterility at 10000 g/ha: read-out: Prozentsatz der Sterilität; for response vs control in vivo: control = 100, read-out: Prozentsatz des Ansetzens bei freier Bestäubung
[6] = test system: Hirse Sorte K-9693 Kormovoe 1; assay: Field trial of gametocidal activity, millet K-9693 Kormovoe 1; conditions: 1% aqueous emulsion, 10 kg/ha
[7] = test system: Diploider Roggen Sorte Kharkovskaya 55; assay: Field trial of gametocidal activity, diploid rye Kharkovskaya 55; conditions: 1% aqueous emulsion, 6 kg/ha
[8] = test system: Roggen Sorte Voskhod 2; assay: Field trial of gametocidal activity, diploid rye Voskhod 2; format: in vivo; conditions: 1% aqueous emulsion, 8 kg/ha
[9] = test system: Hirse Sorte Mironovskoe 94; assay: Field trial of gametocidal activity, millet Mironovskoe 94; format: in vivo; conditions: 1% aqueous emulsion, 10 kg/ha; for response vs control in vivo at 10000 g/ha: control = 100, read-out: Prozentsatz des Ansetzens bei freier Bestäubung
[10] = test system: Sonnenblume Sorte Peredovik; assay: Field trial of pollen sterilisation, sunflower Peredovik; format: in vivo; conditions: 0,2% aqueous emulsion, 1,2 kg/ke (so in the source)
Source text: Pflanzen der Sonnenblume Sorte Peredovik werden in der V. oder VI.
Der Verbrauch an Sterilisationsmittel beträgt 1,2 kg/ke.

[11] = test system: Sonnenblume Linie VK 119; assay: Field trial of pollen sterilisation, sunflower line VK 119; conditions: 0,2% aqueous emulsion, 1,2 kg/ha
[12] = test system: Tetraploider Roggen Sorte Belta; assay: Field trial of gametocidal activity, tetraploid rye Belta; format: in vivo; conditions: 1% aqueous emulsion, 10 kg/ha
[13] = V. or VI. period of organogenesis
[14] = read-out: Prozentsatz des Ansetzens bei freier Bestäubung, Chulpan
[15] = V. or VI. period of organogenesis, read-out: Prozentsatz der Sterilität
[16] = V. or VI. period, read-out: Prozentsatz der Sterilität

SMILES | LD50 ([1]; LD50, weisse Mäuse) [mg/kg] | Anzahl von Körnern der Ähre bei freier Bestäubung [2] | Anzahl von Körnern der Ähre im Isolator [2] | Prozentsatz der Sterilität [2] | Prozentsatz des Ansetzens bei freier Bestäubung [2] | Anzahl von Körnern der Ähre bei freier Bestäubung ([3]; Chulpan, V. or VI. period) | Anzahl von Körnern der Ähre im Isolator ([3]; Chulpan, V. or VI. period) | percent sterility at 10000 g/ha ([3]; Chulpan, V. or VI. period) [%] | Anzahl von Körnern der Ähre bei freier Bestäubung [4, 13] | Anzahl von Körnern der Ähre im Isolator [4, 13] | response vs control in vivo at 20000 g/ha [4] [%] | Anzahl von Körnern der Ähre bei freier Bestäubung [5] | Anzahl von Körnern der Ähre im Isolator [5] | percent sterility at 10000 g/ha [5] [%] | response vs control in vivo [5] [%] | response vs control in vivo at 10000 g/ha [3, 14] [%] | percent sterility at 20000 g/ha [4, 15] [%] | Anzahl von Körnern der Rispe bei freier Bestäubung ([9]; V. or VI. period) | Anzahl von Körnern der Rispe im Isolator ([9]; V. or VI. period) | response vs control in vivo at 10000 g/ha [9] [%] | further results
Nc1ccc(C(=O)O)cc1 [Beispiel 38, Äthanolaminsalz der p-Aminobenzoesäure] | 2850 | 52,8 | 3,2 | 93,4% | 97,8% | – | – | – | – | – | – | – | – | – | – | – | – | – | – | – | –
CCC(CO)(CO)CBr [Beispiel 53, monobromsubstituiertem Etriol] | – | – | – | – | – | 55,8 | 4,8 | 91.8 | – | – | – | – | – | – | – | – | – | – | – | – | response vs control in vivo at 10000 g/ha ([3]; Chulpan, read-out: Prozentsatz des Ansetzens bei freier Bestäubung): 98.4%
OCC(O)CSc1cccc(Cl)c1 (stereo not drawn) [Beispiel 8, 3-(3'-Chlorphenylthio)-propandiol-1,2] | 400 | – | – | – | – | 52,1 | 0,0 | 100 | 32,7 | 2,6 | 80.7 | 24,6 | 0,8 | 99.7 | 89.5 | 91.9 | – | – | – | – | Anzahl von Körnern der Rispe bei freier Bestäubung ([6]; V. or VI. period): 100,8; Anzahl von Körnern der Rispe im Isolator ([6]; V. or VI. period): 0,0; Prozentsatz der Sterilität ([6]; V. or VI. period): 100%; Prozentsatz des Ansetzens bei freier Bestäubung ([6]; control = 100): 68,7%
O=C(COc1ccc(F)cc1)OCCCl [Beispiel I, β-Chloräthylester der 4-Fluorphenoxyessigsäure] | 400 | 45,6 | 0,0 | 100% | 84,4% | – | – | – | 30,4 | – | – | 23,8 | 0,4 | 98.5 | 86.5 | – | 99.8 | – | – | – | Anzahl von Körnern der Ähre bei freier Bestäubung ([7]; V. and VI. periods): 42,7; Anzahl von Körnern der Ähre im Isolator ([7]; V. and VI. periods): 0,0; Prozentsatz der Sterilität ([7]; V. and VI. periods): 100%; Prozentsatz des Ansetzens bei freier Bestäubung ([7]; control = 100): 94,7%
ClCC1CO1 (stereo not drawn) [Beispiel II, 3-Chlor-1,2-epoxypropan] | – | – | – | – | – | 48,9 | 0,0 | – | – | – | 77.5 | – | – | – | – | 86.2 | – | 312,3 | 0,0 | 82.2 | pest or weed control at 20000 g/ha [4, 15]: 99.8%; Anzahl von Körnern der Ähre bei freier Bestäubung ([8]; V. or VI. period): 51,7; Anzahl von Körnern der Ähre im Isolator ([8]; V. or VI. period): 0,6; Prozentsatz der Sterilität ([8]; V. or VI. period): 98,8%; Prozentsatz des Ansetzens bei freier Bestäubung ([8]; control = 100): 94,7%; pest or weed control at 10000 g/ha ([3]; read-out: Prozentsatz der Sterilität, Chulpan, V. or VI. period): 100%; pest or weed control at 10000 g/ha [9, 16]: 100%; Pollensterilität in % [10]: 100%; Ansetzen von Achänen bei freier Bestäubung in % ([10]; V. or VI. period): 82,3%; Ansetzen von Achänen im Isolator bei der Bestäubung mit dem Pollengemisch in % ([10]; V. or VI. period): 0,0%; LD50 [1]: 238 mg/kg; Ansetzen von Achänen bei freier Bestäubung in % [11]: 85,0%; Ansetzen von Achänen im Isolator bei der Bestäubung mit dem Pollengemisch in % [11]: 0,0%; Pollensterilität in % [11]: 100%
O=[N+]([O-])c1ccc(OCC(O)CO)cc1 (stereo not drawn) [Beispiel 9, 3-(4'-Nitrophenoxy)-propandiol-I,2] | 100 to 600 | 45,0 | 0,0 | 100% | 84,1% | 51,7 | 0,7 | 98.7 | 34,0 | 4,8 | 83.9 | – | – | – | – | 91.2 | 85.2 | 311,6 | 0,0 | 82.1 | Anzahl von Körnern der Ähre bei freier Bestäubung ([12]; V. or VI. period): 39,7; Anzahl von Körnern der Ähre im Isolator ([12]; V. or VI. period): 0,0; response vs control in vivo at 10000 g/ha ([12]; control = 100, read-out: Prozentsatz des Ansetzens bei freier Bestäubung): 89.6%; percent pollen sterility at 10000 g/ha [9, 16]: 100%
